The results in this text go back to US8236792B2, “Substituted pyrrolidine amides as modulators of the histamine H3 receptor” (Janssen Pharmaceutica NV, priority 2008, dated 2012).

The target of one test is T1, cloned rat H3 receptors (Rattus norvegicus, UniProt Q9QYN8).
T1 construct: expressed in transfected cells
The experiment in a line: H3 Receptor Binding (Rat).

A further test concerns the target T2, rat H3 receptor (Rattus norvegicus, UniProt Q9QYN8).
T2 construct: expressed in transfected cells; host or cells: SK-N-MC sublines with a reporter construct
The experiment in a line: Cyclic AMP Accumulation (rat H3 reporter subline). The following applies: SK-N-MC subline with reporter construct and rat H3 receptor; free base or trifluoroacetate salt; average; read-out: Rat pA2 (converted). The format is cell-based.

Test [1] concerns the target T3, human H3 receptor (Homo sapiens, UniProt Q9Y5N1). Put plainly: H3 Receptor Binding (Human) Method 2, [125I]-iodoproxyfan competitive radioligand binding. Also on record: expressed in transfected cells.
Description: SK-N-MC cells expressing the human H3 receptor were grown to confluence and tissue culture plates, washed with phosphate-buffered saline, and scraped into 50 mL tubes. After centrifugation, the supernatant was aspirated, and the pellets frozen and stored at −80° C. […] The homogenate was centrifuged at 25000×g for 25 min. […] Reactions were stopped by filtration through GF/B filter plates pre-soaked in 0.3% polyethylenimine and subsequently washed with Tris 50 mM, 5 mM EDTA buffer. Plates were dried for 1 h in a 55° C. oven. Scintillation fluid was added and the radioactivity was counted in a Packard TopCount. Non-specific binding to the H3 receptor was defined by radioactivity that was bound in the presence of 100 μM histamine.
(§1) Compounds were tested in their free base or hydrochloride salt forms.
Test [2] addresses T3, human H3 receptor. The experiment in a line: Cyclic AMP Accumulation (human H3 reporter subline). Particulars: SK-N-MC subline with reporter construct and human H3 receptor; free base or trifluoroacetate salt; average; read-out: Human pA2 (converted). The format is cell-based. Also on record: expressed in transfected cells; host or cells: SK-N-MC sublines with a reporter construct.
Description: Sublines of SK-N-MC cells were created that expressed a reporter construct and either the human or rat H3 receptor. […] Compounds were tested in their free base or trifluoroacetate salt forms.

Test [3] concerns the target T4, cloned human H3 receptors (Homo sapiens, UniProt Q9Y5N1).
T4 construct: expressed in transfected cells
The experiment in a line: H3 Receptor Binding (Human) Method 1. Particulars: receptor stably expressed in SK-N-MC cells, free base forms, average of results.

Where two headings read alike, the source gives them in different places.

T3 sequence (Q9Y5N1 whole entry): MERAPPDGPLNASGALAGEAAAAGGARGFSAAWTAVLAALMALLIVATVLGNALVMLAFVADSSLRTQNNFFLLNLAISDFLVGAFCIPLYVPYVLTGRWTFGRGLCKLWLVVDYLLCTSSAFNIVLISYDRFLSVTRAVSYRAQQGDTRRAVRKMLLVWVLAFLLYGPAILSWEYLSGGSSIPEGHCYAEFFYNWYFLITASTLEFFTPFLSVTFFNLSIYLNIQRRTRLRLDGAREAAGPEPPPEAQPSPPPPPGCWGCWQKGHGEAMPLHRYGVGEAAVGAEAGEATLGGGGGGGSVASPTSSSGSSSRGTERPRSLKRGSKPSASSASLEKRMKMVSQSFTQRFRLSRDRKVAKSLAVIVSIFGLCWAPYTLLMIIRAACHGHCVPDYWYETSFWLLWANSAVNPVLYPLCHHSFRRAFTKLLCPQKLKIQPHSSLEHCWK
T2 sequence (Q9QYN8 whole entry): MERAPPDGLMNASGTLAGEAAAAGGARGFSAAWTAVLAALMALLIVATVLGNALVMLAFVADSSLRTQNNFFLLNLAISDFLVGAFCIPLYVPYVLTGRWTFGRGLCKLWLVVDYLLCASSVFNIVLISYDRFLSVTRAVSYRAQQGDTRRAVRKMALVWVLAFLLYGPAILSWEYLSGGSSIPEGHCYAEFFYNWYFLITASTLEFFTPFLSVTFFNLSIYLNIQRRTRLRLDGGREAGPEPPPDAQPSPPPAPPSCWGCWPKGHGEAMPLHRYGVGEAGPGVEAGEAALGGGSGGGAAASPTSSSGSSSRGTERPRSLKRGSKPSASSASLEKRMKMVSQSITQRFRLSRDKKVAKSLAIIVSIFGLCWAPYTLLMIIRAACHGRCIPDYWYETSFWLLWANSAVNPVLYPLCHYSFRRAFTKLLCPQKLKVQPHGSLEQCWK
T1 sequence (Q9QYN8 whole entry): as above
T4 sequence (Q9Y5N1 whole entry): as the sequence (Q9Y5N1 whole entry) above
Description for cloned rat H3 receptors: Compounds were tested for binding to cloned rat H3 receptors, stably expressed in SK-N-MC cells.
as §1

In the case of `Cc1cc(O[C@@H]2CN[C@@H](C(=O)N3CCCN(C4CCC4)CC3)C2)ccc1Cl` [Example 72, (2R,4S)-4-(4-Chloro-3-methyl-phenoxy)-2-(4-cyclobutyl-[1,4]diazepane-1-carbonyl)-pyrrolidine], the inhibition constant Ki worked out at 0.036 µM on cloned rat H3 receptors (receptor stably expressed in SK-N-MC cells, free base or hydrochloride salt, average of results, read-out: Rat H3 Ki) and 0.003 µM at human H3 receptor [1]. The Kb on rat H3 receptor is 0.0049 µM; at human H3 receptor [2], 0.00102 µM.
In the case of `CSc1ccc(O[C@H]2CN[C@H](C(=O)N3CCCN(C4CCC4)CC3)C2)cc1` [Example 96, (2S,4R)-2-(4-Cyclobutyl-[1,4]diazepane-1-carbonyl)-4-(4-methylsulfanyl-phenoxy)-pyrrolidine], the inhibition constant Ki in test [3] amounted to 0.011 µM; at cloned rat H3 receptors, 0.084 µM. Further, the Kb on rat H3 receptor is 0.112 µM; on human H3 receptor [2] it was 0.0209 µM.
